In patent publication US3962443A, “Antibacterial pharmaceutical compositions and processes for preparation thereof” (Dainippon Pharmaceutical Co., Ltd., priority 1972, dated 1976):
≈ marks a conversion by molar mass, not a printed value. Read-outs that look alike come from different tables or passages of the source.

What was measured:
[1] = system: Staphylococcus aureus Terajima; test: In vitro antibacterial activity, MIC by serial dilution; assay type: cell-based; conditions: nutrient broth pH 7.0, 37°C, 48 hours
Protocol: (§1) The minimum inhibitory concentration (MIC) was determined by the well
(§2) known serial dilution method.
(§3) Experimental conditions:?
(§4) Medium: nutrient broth, pH 7.0 (5 ml/tube)
(§5) Inoculum: 1 drop of 1 : 10^5 dilution of an overnight broth culture
(§6) Incubation temperature and time: 37°C for 48 hours

[2] = system: Pseudomonas aeruginosa Tsuchijima; test: as above; assay type: cell-based; conditions: nutrient broth pH 7.0, 37°C, 48 hours
Protocol: as §1, §2, §3, §4, §5, §6

Escherichia coli K-12 = test: as above; assay type: cell-based
Protocol: as §1, §2, §3, §4, §5, §6

[3] = system: Pseudomonas aeruginosa No. 12; test: In vivo efficacy against systemic infection with Pseudomonas aeruginosa in mice; parameters: species or system mice (ddY-S); conditions: for ED50: twice, about 5 minutes and 6 hours after infection
Protocol: (§7) In the Tables II to IV, the ED50 and ID50 values were calculated in accordance with the Behrens-Kaerber method [Arch. Exp. Path. Pharm., 162, 480 (1931)]. The compound numbers are those described in the Examples and compounds PA and AT-616 are as follows:
(§8) total number. 0/8 means that all of 8 mice died. 8/8 means that all 8 mic
(§9) Mice: male mice (ddY-S) weighing 20 g approximately

[4] = system: Salmonella typhimurium S-9; test: In vivo efficacy against systemic infection with Salmonella typhimurium in mice; parameters: species or system mice (ddY-S); conditions: for ED50: Salmonella enterica, TYPHIMURIUM, 336 h, twice a day for 4 days, 14 days observation; for number of the survived/the total number: 14 days
Protocol: as §7
The numerical figures in the table show the number of the survived/the
as §8
Experimental conditions.
Organism: Salmonella typhimurium S-9
as §9
Infection: Intraperitoneal infection with 50 to 100 LD50 of a
bacterial suspension in nutrient broth (about 10^5 cells/mouse)
Medication: twice a day for 4 days from the day of infection.
Drug: an alkaline solution for parenteral administration and suspension i
0.2% CMC for oral administration
i.e.: intraperitoneal administration
p.o.: oral administration

[5] = system: Mycobacterium tuberculosis H37 Rv; test: Antituberculous activity in vitro, MIC by serial dilution; assay type: cell-based; conditions: H37RV, 504 h, Kirchner medium with 0.2% bovine albumin, pH 7.0, 37°C, 3 weeks
Protocol: (§10) The minimum inhibitory concentration (MIC:μg/ml) was determined by the
(§11) well known serial dilution method.
as §3
(§12) Medium: Kirchner medium containing 0.2% bovine albumin, pH 7.0 (3 ml/tube
(§13) Inoculum: 1 drop of 1:10^2 dilution of a culture in Modified Kirchner
(§14) medium for 2 weeks (OD=0.3) per tube
(§15) Incubation temp. and time: 37°C for 3 weeks

[6] = system: Mycobacterium tuberculosis Kurono; test: as above; assay type: cell-based; conditions: 504 h, Kirchner medium with 0.2% bovine albumin, pH 7.0, 37°C, 3 weeks
Protocol: as §10, §11, §3, §12, §13, §14, §15

[7] = K12, Escherichia coli K-12, nutrient broth pH 7.0, 37°C, 48 hours, read-out: MIC
[8] = NO.12, 168 h, ip, 100 mg/kg, 7 days, read-out: number of the survival/the total number (converted)
[9] = NO.12, 168 h, po, 7 days, read-out: number of the survival/the total number (converted)
[10] = Escherichia coli, K12, 48 h, pH 7
[11] = NO.12, 168 h, ip, 50 mg/kg, 7 days, read-out: number of the survival/the total number (converted)
[12] = NO.12, 168 h, ip, 7 days, read-out: number of the survival/the total number (converted)

| SMILES | MIC [1] | MIC [2] | MIC (Escherichia coli K-12; [7]) | ED50 ([3]; NO.12, 168 h, ip, 7 days) | responders at 200 mg/kg [3, 9] | ED50 ([3]; NO.12, 168 h, po, 7 days) | ED50 ([4]; ip) | ED50 ([4]; po) | number of the survived/the total number ([4]; po, 25 mg/kg) | number of the survived/the total number ([4]; po, 50 mg/kg) | also measured |
| --- | --- | --- | --- | --- | --- | --- | --- | --- | --- | --- | --- |
| CCn1cc(C(=O)O)c(=O)c2cnc(N3CCC(O)C3)nc21 (stereo not drawn) [Compound AT-616, reference compound] | 30 µg/mL (≈ 98.6 µM) | 100 µg/mL (≈ 329 µM) | 1 µg/mL (≈ 3.29 µM) | > 100 mg/kg | 12.5% | > 200 mg/kg |  |  |  |  | responders at 100 mg/kg [3, 8]: 37.5% |
| CCn1cc(C(=O)O)c(=O)c2cnc(N3CCNCC3)nc21 [Compound 1, 5,8-Dihydro-8-ethyl-2-(1-piperazinyl)-5-oxopyrido[2,3-d]pyrimidine-6-carboxylic acid] | 30 µg/mL (≈ 98.9 µM) | 10 µg/mL (≈ 33 µM) |  | 10.5 mg/kg |  | 100 mg/kg | 6.3 mg/kg | 12.5 mg/kg | 8/8 | 8/8 | number of the survived/the total number ([4]; ip, 6.3 mg/kg): 4/8; number of the survived/the total number ([4]; ip, 12.5 mg/kg): 8/8; number of the survived/the total number ([4]; ip, 25 mg/kg): 8/8; number of the survived/the total number ([4]; po, 6.3 mg/kg): 0/8; number of the survived/the total number ([4]; po, 12.5 mg/kg): 4/8; MIC (Escherichia coli K-12; [10]): 1 µg/mL (≈ 3.3 µM); responders at 3.1 mg/kg ([3]; NO.12, ip, 168 h, read-out: number of the survival/the total number, ip, 3.1 mg/kg, 7 days): 12.5%; responders at 6.3 mg/kg ([3]; NO.12, ip, 168 h, read-out: number of the survival/the total number, ip, 6.3 mg/kg, 7 days): 25%; responders at 12.5 mg/kg ([3]; NO.12, ip, 168 h, read-out: number of the survival/the total number, ip, 12.5 mg/kg, 7 days): 50%; responders at 50 mg/kg ([3]; NO.12, ip, 168 h, read-out: number of the survival/the total number, ip, 50 mg/kg, 7 days): 100%; responders at 50 mg/kg ([3]; NO.12, po, 168 h, read-out: number of the survival/the total number, po, 50 mg/kg, 7 days): 0%; responders at 100 mg/kg ([3]; NO.12, po, 168 h, read-out: number of the survival/the total number, po, 100 mg/kg, 7 days): 50% |
| CCCn1cc(C(=O)O)c(=O)c2cnc(N3CCNCC3)nc21 [Compound 2, 5,8-Dihydro-2-(1-piperazinyl)-8-n-propyl-5-oxopyrido[2,3-d]pyrimidine-6-carboxylic acid] | 100 µg/mL (≈ 315 µM) | 30 µg/mL (≈ 94.5 µM) |  | 35.4 mg/kg | 62.5% | < 200 mg/kg |  |  |  |  | MIC (Escherichia coli K-12; [10]): 3 µg/mL (≈ 9.45 µM); responders at 50 mg/kg [3, 11]: 100% |
| C=CCn1cc(C(=O)O)c(=O)c2cnc(N3CCNCC3)nc21 [Compound 50] | 100 µg/mL (≈ 317 µM) | 30 µg/mL (≈ 95.1 µM) | 10 µg/mL (≈ 31.7 µM) | 35 mg/kg |  |  |  |  |  |  | responders at 25 mg/kg [3, 12]: 12.5%; responders at 50 mg/kg [3, 11]: 87.5%; responders at 100 mg/kg [3, 8]: 100% |
| CCn1cc(C(=O)O)c(=O)c2cnc(N3CCN(c4ccccc4)CC3)nc21 [Compound 6, 5,8-Dihydro-8-ethyl-2-(4-phenyl-1-piperazinyl)-5-oxoprido[2,3-d]pyrimidine-6-carboxylic acid] |  |  |  |  |  |  |  |  |  |  | MIC [5]: 6.3 µg/mL (≈ 16.6 µM); MIC [6]: 6.3 µg/mL (≈ 16.6 µM) |
| CCn1cc(C(=O)O)c(=O)c2cnc(N3CCNCC3)nc21.Cl [Compound 11, 5,8-Dihydro-8-ethyl-2-(1-piperazinyl)-5-oxopyrido[2,3-d]pyrimidine-6-carboxylic acid hydrochloride] | 30 µg/mL | 10 µg/mL | 3 µg/mL | < 17.7 mg/kg | 100% | < 100 mg/kg |  | < 35.4 mg/kg |  | 8/8 | responders at 25 mg/kg [3, 12]: 100%; responders at 100 mg/kg ([3]; NO.12, 168 h, po, 100 mg/kg, 7 days, read-out: number of the survival/the total number (converted)): 87.5% |
| CCn1cc(C(=O)O)c(=O)c2cnc(N3CCCC3)nc21 [Compound PA, reference compound] | 10 µg/mL (≈ 34.7 µM) | 100 µg/mL (≈ 347 µM) | 1 µg/mL (≈ 3.47 µM) | > 100 mg/kg | 0% | > 200 mg/kg | 43.5 mg/kg | 46.7 mg/kg | 3/10 | 4/10 | number of the survived/the total number ([4]; ip, 12.5 mg/kg): 0/10; number of the survived/the total number ([4]; ip, 25 mg/kg): 3/10; number of the survived/the total number ([4]; ip, 50 mg/kg): 5/10; number of the survived/the total number ([4]; ip, 100 mg/kg): 9/10; number of the survived/the total number ([4]; po, 12.5 mg/kg): 0/10; number of the survived/the total number ([4]; po, 100 mg/kg): 10/10; responders at 100 mg/kg [3, 8]: 0%; MIC [5]: 100 µg/mL (≈ 347 µM); MIC [6]: 100 µg/mL (≈ 347 µM) |
| CCn1cc(C(=O)O)c(=O)c2cnc(N3CCN(Cc4ccc(OC)cc4)CC3)nc21 [Compound 17] | 10 µg/mL (≈ 23.6 µM) | 100 µg/mL (≈ 236 µM) | 3 µg/mL (≈ 7.08 µM) |  |  |  |  |  |  |  |  |
| C=Cn1cc(C(=O)O)c(=O)c2cnc(N3CCNCC3)nc21.Cl [Compound 54, 5,8-Dihydro-2-(1-piperazinyl)-8-vinyl-5-oxopyrido[2,3-d] pyrimidine-6-carboxylic acid hydrochloride] | > 100 µg/mL | 3 µg/mL | 3 µg/mL |  |  |  |  | 17.7 mg/kg | 6/8 | 8/8 | number of the survived/the total number ([4]; po, 12.5 mg/kg): 2/8 |
| O=C(O)c1cn(Cc2ccccc2)c2nc(N3CCNCC3)ncc2c1=O [Compound 33, 8-Benzyl-5,8-dihydro-2-(1-piperazinyl)-5-oxopyrido [2,3-d]pyrimidine-6-carboxylic acid] | 100 µg/mL (≈ 274 µM) | 10 µg/mL (≈ 27.4 µM) | 3 µg/mL (≈ 8.21 µM) | < 17.7 mg/kg |  |  | 12.5 mg/kg |  |  |  | number of the survived/the total number ([4]; ip, 6.3 mg/kg): 1/8; number of the survived/the total number ([4]; ip, 12.5 mg/kg): 4/8; number of the survived/the total number ([4]; ip, 25 mg/kg): 7/8; responders at 25 mg/kg [3, 12]: 100% |
| C#CCN1CCN(c2ncc3c(=O)c(C(=O)O)cn(CC)c3n2)CC1 [Compound 38] | 10 µg/mL (≈ 29.3 µM) | > 100 µg/mL | 3 µg/mL (≈ 8.79 µM) |  |  |  |  | 21 mg/kg | 6/8 | 8/8 | number of the survived/the total number ([4]; po, 12.5 mg/kg): 0/8 |
| CCn1cc(C(=O)O)c(=O)c2cnc(N3CCN(CC(C)O)CC3)nc21 (stereo not drawn) [Compound 4, 5,8-Dihydro-8-ethyl-2-[4-(2-hydroxy-n-propyl)-1-piperazinyl]-5-oxopyrido[2,3-d]pyrimidine-6-carboxylic acid] | 30 µg/mL (≈ 83 µM) | 100 µg/mL (≈ 277 µM) | 3 µg/mL (≈ 8.3 µM) |  |  |  | < 35.4 mg/kg | < 35.4 mg/kg |  | 8/8 | number of the survived/the total number ([4]; ip, 50 mg/kg): 8/8 |
| Cl.O=C(O)c1cn(CCCl)c2nc(N3CCNCC3)ncc2c1=O [Compound 63, 8-(2-chloroethyl)-5,8-dihydro-2-(1-piperazinyl)-5-oxopyrido[2,3-d]pyrimidine-6-carboxylic acid hydrochloride] | 30 µg/mL | 30 µg/mL | 3 µg/mL | < 17.7 mg/kg |  |  |  |  |  |  | responders at 25 mg/kg [3, 12]: 100%; responders at 50 mg/kg [3, 11]: 100% |
| CCN1CCN(c2ncc3c(=O)c(C(=O)O)cn(CC)c3n2)CC1 [Compound 21, 2-(4-ethyl-1-piperazinyl)-5,8-dihydro-8-ethyl-5-oxopyrido[2,3-d]pyrimidine-6-carboxylic acid] | 30 µg/mL (≈ 90.5 µM) | 100 µg/mL (≈ 302 µM) | 1 µg/mL (≈ 3.02 µM) | ~100 mg/kg | 50% | ~200 mg/kg | < 17.7 mg/kg | < 17.7 mg/kg | 8/8 |  | number of the survived/the total number ([4]; ip, 25 mg/kg): 8/8; responders at 50 mg/kg [3, 11]: 0%; responders at 100 mg/kg [3, 8]: 50% |
